Ki data for 6 compounds are collected here from ChEMBL document CHEMBL1130721, “Design and synthesis of novel conformationally restricted HIV protease inhibitors” (Bioorg Med Chem Lett, 1998).

The target of the assay is Human immunodeficiency virus type 1 protease (Human immunodeficiency virus 1, UniProt Q72874). The experiment in a line: Compound was assayed for inhibition against HIV protease activity.

One may read the Ki as a dissociation constant, usually derived from enzyme kinetics or from competition with a known ligand. With `COc1ccc(S(=O)(=O)N(CC2CCCC2)C[C@@H](O)CN2C(=O)CNC[C@@H]2Cc2ccccc2)cc1`, the inhibitory constant (Ki) was determined as 3000 nM. As for `COc1ccc(S(=O)(=O)N(CC2CCCC2)C[C@@H](O)CN2C(=O)COC[C@@H]2Cc2ccccc2)cc1`, the figure is 1000 nM; as for `COc1ccc(S(=O)(=O)N(CC2CCCC2)C[C@@H](O)CN2C(=O)C3(CCCCC3)NC[C@@H]2Cc2ccccc2)cc1`, 17 nM; as for `COc1ccc(S(=O)(=O)N(CC2CCCC2)C[C@@H](O)CN2C(=O)[C@@H](Cc3ccccc3)C[C@@H]2Cc2ccccc2)cc1`, 0.5 nM.

Consider `COc1ccc(S(=O)(=O)N(CC2CCCC2)C[C@@H](O)CN2C(=O)OC[C@@H]2Cc2ccccc2)cc1`, for which the Ki was 1500 nM. As for `COc1ccc(S(=O)(=O)N(CC2CCCC2)C[C@@H](O)CN2C(=O)N(Cc3ccccc3)C[C@@H]2Cc2ccccc2)cc1`, the figure is 15 nM.
